Laboratory results published in patent US8372834B2, “Compositions and methods for delivery of anti-cancer agents” (University of Wollongong, priority 2007, dated 2013).

Assays:
[1] = test system: COLO-201; assay: In vitro cytotoxicity, MTS cell proliferation assay; assay type: cell-based; conditions: COLO-201 cells
Experimental: (§1) After 72 h, cell proliferation was analysed by the MTS assay and normalised to saline control treatments (100% proliferation). ● 5-FU, ▪ 5-FU:FA, ▴ FD45c, ♦ FD50-7Sc, ? FD100HPc. Dashed lines represent the IC50 for each treatment (GraphPad). Values shown are mean±SD (n=4, except for HCT-116 FD50-7Sc and MDA-MB-231 FD100HPc where n=3)
(§2) In vitro cytotoxicity assays were carried out on 5 different carcinoma cell lines (MDA-MB-231, HCT-116, COLO-201, PC-3 and PC-14) using 3 different compositions of the invention (FD45c, FD50-7Sc and FD100HPc). MDA-MB-231 is a breast cancer cell line, HCT-116 and COLO-201 are colon cancer cell lines, PC-3 is a prostate cancer cell line and PC-14 is a non-small cell lung cancer cell line.
(§3) The levels of 5-FU and FA remained constant in each composition. For comparison, assays were also performed using a combination of 5-FU and FA (5-FU:FA), and also 5-FU only. A summary of IC50 values for all cell lines is presented in Table 1 below, and representative dose-response curves used to generate these IC50 values are presented in FIG. 3.

[2] = test system: HCT-116; assay: as above; assay type: cell-based; conditions: Homo sapiens, HCT-116 cells, 72 h, mean IC50 ± SD, at least 3 independent experiments, read-out: IC50 (μM 5-FU)
Experimental: as §1, §2, §3

[3] = test system: MDA-MB-231; assay: as above; assay type: cell-based; conditions: Homo sapiens, MDA-MB-231 cells, 72 h, mean IC50 ± SD, at least 3 independent experiments, read-out: IC50 (μM 5-FU)
Experimental: as §1, §2, §3

[4] = test system: PC-14; assay: as above; assay type: cell-based; conditions: PC-14 cells
Experimental: as §1, §2, §3

[5] = test system: PC-3; assay: as above; assay type: cell-based; conditions: Homo sapiens, PC-3 cells, 72 h, mean IC50 ± SD, at least 3 independent experiments, read-out: IC50 (μM 5-FU)
Experimental: as §1, §2, §3

[6] = Preliminary stability study of compositions; assay type: physicochemical; conditions: three weeks, room temperature, protected from light
Experimental: A preliminary assessment of the stability of the compositions was carried out over a period of three weeks. Test samples were manufactured using the FD2 method described above and stored at room temperature. 5-FU is known to be light sensitive and therefore the samples were protected from exposure to light. The samples were monitored at set time intervals for signs of decomposition using a solution of the equivalent concentration of 5-FU in saline (0.9%) as a control. The methods of monitoring the solutions were physical appearance (solid formation etc.), pH and UV-VIS absorbance spectroscopy (266 nm). The 5-FU solution was warmed and sonicated to dissolve any solid 5-FU that had precipitated before pH and absorbance readings.

[7] = Homo sapiens, 72 h, MTS assay, mean IC50 ± SD, at least 3 independent experiments, read-out: IC50 (μM 5-FU)

Compound: O=c1[nH]cc(F)c(=O)[nH]1 [Composition 5-FU, 5-fluorouracil]
- effectiveness compared to 5-FU:FA ([1]; P=0.0084): significantly less effective than 5-FU:FA
- IC50 [1, 7]: 39.3 ± 13.9 µM
- IC50 [2]: 4 ± 1.3 µM
- IC50 [3]: 9.1 ± 1.4 µM
- IC50 [4, 7]: 33.4 ± 12.2 µM
- effectiveness compared to 5-FU:FA ([4]; P=0.0084): significantly less effective than 5-FU:FA
- IC50 [5]: 1.4 ± 0.8 µM
- change in pH over time [6]: No significant change
- change in A266 over time (UV-VIS absorbance, 266 nm) ([6]; serial dilution): No overall trend of change
